From patent US8282938B2 (priority 2008, dated 2012)

How the values were obtained:
[1] = system: HLA-A*2402-restricted cytotoxic T lymphocytes; parameters: species or system transgenic mice expressing the HLA-A*2402 molecule (A24Tg); conditions: mouse, in vivo
[2] = system: HLA-A*0201-restricted cytotoxic T lymphocytes; parameters: species or system mice expressing the HLA-A*0201 molecule (HHD mice); conditions: mouse, in vivo

Sequence | CTL activity [1] | Specific killing [1] | CTL activity [2] | Specific killing [2]
CFNPMIVEL [PA_8] | low activity | 10% |  | 
EWFRNVLSI [PB1_331] | low activity | 7% |  | 
GMFNMLSTV [PB1_410] |  |  | high CTL activity | 87%
IFLARSALI [NP_257] | low activity | 16% |  | 
KTTPRPLRL [PA_262] | high CTL activity | 58% |  | 
LWILDRLFF [M2_40] | low activity | 10% |  | 
MYQKCCTLF [PB1_688] | high CTL activity | 89% |  | 
RYTKTTYWW [PB1_430] | high CTL activity | 96% |  | 
SFSFGGFTF [PB2_322] | high CTL activity | 38% |  | 
SLLTEVETL [M2_2] | low activity |  |  | 
SYINRTGTF [PB1_482] | high CTL activity | 56% |  | 
SYLIRALTL [PB1_216] | high CTL activity | 22% |  | 
TYFEKVERL [PB2_117] | low activity | 13% |  | 
TYQWIIRNW [PB2_549] | high CTL activity | 96% |  | 
YYLEKANKI [PA_130] | high CTL activity | 95% |  | 
